Assays:
Conditions in all cases: 72 h
[1] = system: Calu-3; test: cell viability relative to DMSO; higher = less toxic
[2] = system: Vero E6; test: as above
[3] = system: HepG2; test: as above
[4] = system: U2OS; test: as above
[5] = system: Caco-2; test: as above
[6] = system: Calu-3; test: relative viability EC50 (midpoint between 100% and the lowest measured viability); higher = less toxic
[7] = system: Vero E6; test: as above
[8] = system: HepG2; test: as above
[9] = system: U2OS; test: as above
[10] = system: Caco-2; test: as above
[11] = system: Calu-3; test: drug sensitivity score (DSS) for viability; higher = more toxic; extreme values may be limits of the assay
[12] = system: Vero E6; test: as above
[13] = system: HepG2; test: as above
[14] = system: U2OS; test: as above
[15] = system: Caco-2; test: as above

SMILES | cell viability ([1]; 1 nM) | cell viability ([1]; 10 nM) | cell viability ([1]; 100 nM) | cell viability ([1]; 1000 nM) | cell viability ([1]; 10000 nM) | cell viability ([2]; 1 nM) | cell viability ([2]; 10 nM) | cell viability ([2]; 100 nM) | cell viability ([2]; 1000 nM) | cell viability ([2]; 10000 nM) | cell viability ([3]; 1 nM) | cell viability ([3]; 10 nM) | cell viability ([3]; 100 nM) | cell viability ([3]; 1000 nM) | cell viability ([3]; 10000 nM) | cell viability ([4]; 1 nM) | cell viability ([4]; 10 nM) | cell viability ([4]; 100 nM) | cell viability ([4]; 1000 nM) | cell viability ([4]; 10000 nM) | cell viability ([5]; 1 nM) | cell viability ([5]; 10 nM) | cell viability ([5]; 100 nM) | cell viability ([5]; 1000 nM) | cell viability ([5]; 10000 nM) | relative viability EC50 [6] | relative viability EC50 [7] | relative viability EC50 [8] | relative viability EC50 [9] | relative viability EC50 [10] | drug sensitivity score [11] | drug sensitivity score [12] | drug sensitivity score [13] | drug sensitivity score [14] | drug sensitivity score [15]
COc1ccsc1CNCC[C@@]1(c2ccccn2)CCOC2(CCCC2)C1 [TRV130] | 103% | 96.9% | 101% | 112% | 104% | 96.9% | 100% | 95.7% | 94.5% | 96.6% | 105% | 95.6% | 91.9% | 102% | 94.9% | 103% | 102% | 102% | 96.9% | 100% | 105% | 104% | 101% | 93% | 97.6% | > 10 µM | > 10 µM | > 10 µM | > 10 µM | > 10 µM | 0 | 0 | 0 | 0 | 0
O[C@@H]1CO[C@H]2[C@@H]1OC[C@@H]2O [isosorbide] | 97.3% | 97.6% | 106% | 101% | 111% | 96.7% | 100% | 97.5% | 92.9% | 99.8% | 93.4% | 92.5% | 106% | 99.6% | 105% | 96.8% | 98.9% | 95% | 98.8% | 94.4% | 94.8% | 93.7% | 91.4% | 102% | 99.8% | > 10 µM | > 10 µM | > 10 µM | > 10 µM | > 10 µM | 0 | 0 | 0 | 0 | 0
Cc1nccn1CCC(C(N)=O)(c1ccccc1)c1ccccc1 [imidafenacin] | 106% | 107% | 106% | 97.9% | 102% | 97.9% | 100% | 95.5% | 99.2% | 97.2% | 101% | 97.3% | 97.5% | 95% | 92.5% | 99% | 94% | 101% | 96.4% | 96.5% | 99.4% | 91.8% | 92.8% | 87.3% | 93.4% | > 10 µM | > 10 µM | > 10 µM | > 10 µM | > 10 µM | 0 | 0 | 0 | 0 | 0.1
CC(=O)c1ccc2c(c1)N(CCCN(C)C)c1ccccc1S2 [acepromazine] | 111% | 102% | 92.9% | 96.1% | 83.5% | 101% | 101% | 99.4% | 99.4% | 89.2% | 98.3% | 96.4% | 101% | 91.9% | 94.7% | 101% | 95% | 100% | 93.9% | 95.7% | 104% | 93.1% | 99.6% | 86.4% | 102% | > 10 µM | > 10 µM | > 10 µM | > 10 µM | > 10 µM | 0.3 | 0 | 0 | 0 | 0
CCCCCCCC/C=C\CCCCCCCC(=O)NCCO [oleoylethanolamide] | 97.2% | 101% | 97.1% | 102% | 101% | 106% | 102% | 105% | 96.4% | 103% | 92.1% | 96.1% | 103% | 90.2% | 104% | 99.8% | 100% | 97% | 103% | 103% | 86.2% | 99.2% | 92.3% | 104% | 106% | > 10 µM | > 10 µM | > 10 µM | > 10 µM | > 10 µM | 0 | 0 | 0 | 0 | 0
c1ccc([C@H]2CNCc3ccccc32)cc1 [4-phenyl-1,2,3,4-tetrahydroisoquinoline] | 101% | 109% | 92.3% | 102% | 105% | 96.7% | 99.4% | 100% | 99.6% | 98.8% | 101% | 91.7% | 103% | 104% | 96.7% | 99.9% | 101% | 94.1% | 94.9% | 100% | 98.1% | 109% | 97.3% | 103% | 103% | > 10 µM | > 10 µM | > 10 µM | > 10 µM | > 10 µM | 0 | 0 | 0 | 0 | 0
c1ccc(CNc2nc(NCc3ccccc3)c3ccccc3n2)cc1 [DBeQ] | 105% | 103% | 91.2% | 93.7% | 9% | 99.8% | 98.9% | 95.5% | 94.1% | 19.8% | 104% | 96.1% | 100% | 96.6% | 8.4% | 97.6% | 102% | 97.1% | 90.5% | 8.2% | 95.7% | 112% | 94.5% | 100% | 28.8% | 2.61 µM | 2.57 µM | 2.89 µM | 2.31 µM | 3.17 µM | 6 | 5.4 | 5.5 | 6.7 | 3.9
CC(NCCc1ccc(O)cc1)C(O)c1ccc(O)cc1 (stereo not given) [ritodrine] | 102% | 105% | 93.7% | 98.3% | 101% | 86.5% | 93.6% | 102% | 98.9% | 109% | 94.5% | 102% | 91.4% | 95.8% | 103% | 96.9% | 102% | 97% | 101% | 105% | 91.4% | 97.7% | 95.5% | 99.7% | 105% | > 10 µM | > 10 µM | > 10 µM | > 10 µM | > 10 µM | 0 | 0 | 0 | 0 | 0
NCCCNCCCCNCCCN [spermine] | 99.2% | 101% | 81.9% | 99.2% | 104% | 95.3% | 94.1% | 95.8% | 98.6% | 106% | 93.6% | 98.4% | 104% | 93.1% | 94.3% | 96.5% | 96.3% | 96.1% | 96.8% | 103% | 90.2% | 124% | 93.5% | 98% | 96.7% | > 10 µM | > 10 µM | > 10 µM | > 10 µM | > 10 µM | 0 | 0 | 0 | 0 | 0
O=C(O[C@@H]1Cc2c(O)cc(O)cc2O[C@@H]1c1cc(O)c(O)c(O)c1)c1cc(O)c(O)c(O)c1 [epigallocatechin-gallate-(-)] | 103% | 90.5% | 103% | 96.8% | 97.1% | 98.5% | 100% | 103% | 98.2% | 95.4% | 101% | 107% | 93.1% | 97.8% | 97.5% | 100% | 98.2% | 103% | 97% | 97.3% | 103% | 99.1% | 97.7% | 99.7% | 101% | > 10 µM | > 10 µM | > 10 µM | > 10 µM | > 10 µM | 0 | 0 | 0 | 0 | 0
CC(=O)N(CC(C)C(=O)O)c1c(I)cc(I)c(N)c1I (stereo not given) [iocetamic-acid] | 97.3% | 98.6% | 91.5% | 90.3% | 95.4% | 107% | 103% | 97.3% | 105% | 101% | 93% | 102% | 99.8% | 102% | 96.1% | 98.2% | 103% | 104% | 102% | 101% | 101% | 99.3% | 90.6% | 95.5% | 99.9% | > 10 µM | > 10 µM | > 10 µM | > 10 µM | > 10 µM | 0 | 0 | 0 | 0 | 0
Nc1ccc(S(=O)(=O)Nc2ccnn2-c2ccccc2)cc1 [sulfaphenazole] | 97.2% | 100% | 101% | 104% | 97.2% | 93.1% | 102% | 88.4% | 99.5% | 108% | 102% | 99.5% | 85.5% | 112% | 103% | 97.4% | 97.8% | 100% | 99.4% | 101% | 97.5% | 100% | 102% | 96.1% | 94% | > 10 µM | > 10 µM | > 10 µM | > 10 µM | > 10 µM | 0 | 0 | 0 | 0 | 0

Source: the supplement of paper PMC13380429
